Data: patent publication US12611470B2, “Chromatin-opening element for stable long term gene expression” (CZ Biohub SF, LLC, priority 2019, dated 2026)

B1: EF1a promoter: Elongation Factor 1 promoter, positive control for promoter activity (nucleic acid)
DNA: AATGTAGTCTTATGCAATACTCTTGTAGTCTTGCAACATGGTAACGATGAGTTAGCAACATGCCTTACAAGGAGAGAAAAAGCACCGTGCATGCCGATTGGTGGAAGTAAGGTGGTACGATCGTGCCTTATTAGGAAGGCAACAGACGGGTCTGACATGGATTGGACGAACCACTGAATTCCGCATTGCAGAGATATTGTATTTAAGTGCCTAGCTCGATACAATAAACGCCATTTGACCATTCACCACATTGGTGTGCACC
modifications: Rous sarcoma virus

How the values were obtained:
Transduced P19 cells = assay: Epigenetic effector experiments: rescue of GFP expression in silenced transduced cells; type: cell-based, mouse; details: for reactivation of GFP expression: all examined populations, range of concentrations; for silenced cells rescued: RSV promoter-only construct, 24 h treatment
Protocol: (§1) GFP expression is rescued by treatment with DNA methylation inhibitor 5-aza-cytidine (5-aza) in day 18 UCOE-RSV cells from the lentiviral silencing experiment. Cells were replica plated at day 16, specified concentrations of 5-aza were introduced 24 hours later (with exception of control), and cells were passaged and assayed via flow cytometry 24 hours after chemical introduction for % GFP+ cells. Data is reported as mean±SD from three biological replicates.
as §1, with “HDAC” for “DNA methylation”, “trichostatin A (TSA)” for “5-aza-cytidine (5-aza)”, “24” for “18”, “22,” for “16,”, “TSA” for “5-aza”, “mean f SD” for “mean±SD”
Cells were replica plated at day 16, specified concentrations of 5-aza were introduced 24 hours later (with exception of control), and cells were passaged and assayed via flow cytometry 24 hours after chemical introduction for % GFP+ cells. Data is reported as mean±SD from three biological replicates. In the graph, data is shown from left to right for each construct: no treatment, 2 μM 5-aza, 10 μM 5-aza. […] Cells were replica plated at day 22, specified concentrations of TSA were introduced 24 hours later (with exception of control), and cells were passaged and assayed via flow cytometry 24 hours after chemical introduction for % GFP+ cells. Data is reported as mean f SD from three biological replicates. In the graph, data is shown from left to right for each construct: no treatment, 0.05 μM TSA, 0.1 μM TSA. […] Cells were replica plated at day 19, treated with 0.1 μM TSA or 10 μM 5-aza (with exception of control) 24 hours later, and cells were passaged and assayed via flow cytometry 24 hours after chemical introduction for % GFP+ cells. Data is reported as mean f SD from three biological replicates. In the graphs for FIG. 6C and FIG. 6D, the data is shown from left to right for each construct: no treatment, 0.1 μM TSA, 10 μM 5-aza.
Replica-plated cell populations were treated with varying concentrations of 5-aza-2′-deoxycytidine (Sigma-Aldrich, A3656) or Trichostatin A (Sigma-Aldrich, T1952) 24 hours after passaging. TSA was purchased as a readymade 5 mM solution in DMSO, which was then diluted to a 0.05 μM or 0.1 μM concentration in P19 growth media. 5 mg of 5-aza-2′-deoxycytidine was dissolved in 1 mL of 1:1 acetic acid: water to make a 21.9 mM stock solution, which was then diluted in P19 growth media to 2 μM or 10 μM. Cells were assayed through flow cytometry after 24 hours. […]

P19 cells = assay: Standalone (intrinsic) promoter activity screen, UCOE-GFP construct lacking the Ef1a promoter; type: cell-based, mouse; details: promoterless GFP construct, after two weeks of antibiotic selection
Source text: A schematic representation of the expression construct in which the candidate region (UCOE) is inserted upstream of the GFP gene in the absence of any other promoter sequences as used is shown as an inlay. As positive controls, the Ef1α promoter, the 2.2 kB A2UCOE sequence, and the 1.2 kB reverse orientation sequence 3′UCOE, were cloned into the same reporter construct as the candidate sequences. The percent GFP positive in the population was monitored as a metric for gene expression by flow cytometry analysis with each passage (% GFP). Stably transfected cells were assayed for % GFP+ and median fluorescent intensity (normalized to Ef1a promoter control). Data is reported as mean±SD from biological duplicates.
P19 cells were seeded at 25,000 cells/well in 12 well plates. 24 h after seeding, cells were transfected using Lipofectamine™ 2000 transfection reagent (Thermo Fisher) according to the manufacturer's instructions using 500 ng DNA/well and 2.5 μL of Lipofectamine per well. 24 hours after transfection, selection was initiated with 1 μg/mL puromycin (Sigma-Aldrich) in regular growth media and, from then on, cells were passaged at 1:15 or 1:20 dilutions whenever cells were 80-90% confluent (every 2-3 days) with frequent refreshing of puromycin-containing media to clear dead cells. After approximately 14-16 days, remaining cells were assumed to be stably transfected and were changed to regular growth media to initiate silencing experiments. During silencing experiments, the P19 cells were passaged every 2-3 days and re-seeded at 15,000 cells/well.
Fluorescence data throughout silencing experiments was obtained using a MACSQuant® VYB flow cytometer (Miltenyi Biotec). EGFP was measured through the 488-nm laser and 525/50 nm band pass filter. Flow cytometry data was analyzed using the FlowJo™ single cell flow cytometry analysis software (Tree Star). After being gated for singlets and viability, GFP+ gates in FlowJo were drawn such that a non-transfected or non-transduced P19 cell population was at 1% GFP+. Median values reported are of cells within the GFP+ gate, both % GFP positive and median are reported with the standard deviation of biological replicates.
As A2UOCE dually functions as a protective regulatory element and a universal promoter, the candidate UCOEs were further screened for standalone promoter activity. A similar experiment as the aforementioned screen was performed using a similar expression construct that lacked the Ef1a promoter. This construct was used to assess whether the candidate sequences could drive reporter expression and act as stand-alone functional promoters. Candidates were compared to the positive control of the EF1a promoter, which had ˜70% GFP+ cells after two weeks of antibiotic selection, showing a distinct positive population in the fluorescence histogram. The GFP+ gate (i.e., flow cytometry fluorescence threshold for GFP+ cells) was set to encompass 1% of untransfected cells and then applied to all samples. […] Such a result appears as a bimodal distribution on a histogram, with a peak below the gate threshold (i.e., GFP negative cell population) and a peak above it (i.e., the distinct GFP positive population mentioned above). […] In this study, a % GFP+ of at least 50% is considered to reflect the existence of a second population in the histograms, and thus a binary indicator of promoter function. […] The median GFP intensity of the GFP+ population was used a measure of the strength of the promoter, and normalized to the Ef1a positive control as shown in FIG. 2C.
This aligns with previous observations that the RNPA2B1 promoter is much stronger than that of CBX3 (Zhang, F., et al. (2010) Mol Ther, 18, 1640-1649 (7)). However, the RNPA2B1 promoter in A2UCOE is only 30% as strong as the EF1α promoter. […]

Molecule	reactivation of GFP expression (Transduced P19 cells)	silenced cells rescued (Transduced P19 cells; highest dose of 5-aza, day 18 cells) [%]	silenced cells rescued (Transduced P19 cells; highest dose of TSA, day 24 cells)	% GFP+ cells (P19 cells) [%]	% GFP+ cells, representative flow cytometry example (P19 cells; one representative example) [%]
Nc1ncn([C@@H]2O[C@H](CO)[C@@H](O)[C@H]2O)c(=O)n1 [Candidate 5-aza, 5-azacytidine]	dose-dependent increase in % GFP positive cells	63	–	–	–
CC(/C=C/C(=O)NO)=C\[C@@H](C)C(=O)c1ccc(N(C)C)cc1 [TSA, trichostatin A]	dose-dependent recovery of GFP expression	–	about 25%	–	–
B1	–	–	–	~70	74.2
